{
  "source": "patent US4803080A",
  "about": "(BYK Gulden Lomberg Chemische Fabrik, priority 1984, dated 1989)",
  "origin": "cited, not measured here",
  "data": [
    {"compound": "Cn1c(=O)c2[nH]cnc2n(C)c1=O", "note": "[Theophylline, 1,3-dimethylxanthine]", "values": [
      {"measurement": "Serum theophylline levels regarded as toxic range", "setting": "Nolte and Neumann", "value": "more than 20 μg/ml"},
      {"measurement": "Absorption from the gastrointestinal tract during the night", "setting": "in vivo", "value": "slowed down during the night"},
      {"measurement": "Therapeutic range, plasma levels", "setting": "in vivo", "value": "8-20 mg/1"}
    ]}
  ]
}
